Experimental data taken from PMC10584170, “Machine learning-based phenotypic imaging to characterise the targetable biology of Plasmodium falciparum male gametocytes for the development of transmission-blocking antimalarials” (PLOS Pathogens, 2023).

Legend:
[1] = system: P. falciparum male gametocytes; experiment: P. falciparum Dual Gamete Formation Assay (PfDGFA), male readout (exflagellation); format: cell-based, Plasmodium falciparum NF54; details: for % inhibition male (individual replicates) R1: replicate R1; for % inhibition male (individual replicates) R3: replicate R3; for % inhibition male (individual replicates) R4: replicate R4; for Average inhibition male (%): average of replicates; for Activity: hit = >50% inhibition in male or female readout in at least 3 replicates, 0 = no class assigned
Summary of the method: (§1)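 Mature NF54 gametocytes (day 14) were incubated with compound for 24 h at 37°C under 1% O2/3% CO2, then triggered with xanthurenic acid ookinete medium plus Cy3-anti-Pfs25. Exflagellation was imaged by brightfield; after a further 24 h at 28°C, Pfs25-positive female gametes were imaged by fluorescence and counted by automated image analysis.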

[2] = system: P. falciparum female gametocytes; experiment: P. falciparum Dual Gamete Formation Assay (PfDGFA), female readout (Pfs25-positive female gametes); format: cell-based, Plasmodium falciparum NF54; details: for % inhibition female (individual replicates) R1: replicate R1; for % inhibition female (individual replicates) R3: replicate R3; for % inhibition female (individual replicates) R4: replicate R4; for Average inhibition female (%): average of replicates
Summary of the method: as §1

[3] = PfDGFA at 2µM, 24h preincubation with gametocytes prior to induction of gametogenesis
[4] = PfDGFA at 2µM, 24h preincubation
[5] = 2µM, 24h preincubation with gametocytes prior to induction of gametogenesis
[6] = 2µM, 24h preincubation, hits selected on >50% inhibition in the male readout across replicates
[7] = 2µM, 24h preincubation, hits selected on >50% inhibition in the female readout across replicates
[8] = 2µM, 24h preincubation, number of replicates with >50% inhibition in the male readout
[9] = 2µM, 24h preincubation, number of replicates with >50% inhibition in the female readout
[10] = PfDGFA at 2µM, 24h preincubation with gametocytes
[11] = 2µM, 24h preincubation with gametocytes

Compound | Average inhibition male (%) [1, 5] [%] | % inhibition male (individual replicates) R1 [1, 5] [%] | % inhibition male (individual replicates) R3 [1, 5] [%] | % inhibition male (individual replicates) R4 [1, 5] [%] | HitlevelM [1, 6] | Activity [1, 4] | Average inhibition female (%) [2, 5] [%] | % inhibition female (individual replicates) R1 [2, 5] [%] | % inhibition female (individual replicates) R3 [2, 5] [%] | % inhibition female (individual replicates) R4 [2, 5] [%] | HitlevelF [2, 7] | other results
Cc1cc(CNCCCCCCCNCc2ccc(-c3ccccc3)cc2)ccc1O [TCMDC-140415] |  |  |  |  |  |  |  |  |  |  |  | % inhibition male (individual replicates) R1 [1, 3]: 37.4%; % inhibition male (individual replicates) R3 [1, 3]: 30.2%; % inhibition male (individual replicates) R4 [1, 3]: 70.9%; Average inhibition male (%) [1, 4]: 52.6%; % inhibition female (individual replicates) R1 [2, 3]: 15.4%; % inhibition female (individual replicates) R3 [2, 3]: -2.4%; % inhibition female (individual replicates) R4 [2, 3]: -10.0%; Average inhibition female (%) [2, 4]: 3.6%
CC1(C)N=C(N)N=C(N)N1c1ccc(Oc2ccc(Cl)cc2)c(Cl)c1 [TCMDC-123522] | -4.1 | 6.1 | -10.9 | -16.5 | 0 | 0 | 4.9 | 11.0 | 16.4 | -0.18 | 0 | 
CCCCCCCN1CC[C@@H](CCCc2ccnc3ccc(OC)cc23)[C@@H](CNC)C1.O=C(O)C(=O)O [TCMDC-139875] | 45.5 | 37.4 | 18.3 | 73.6 |  |  | 34.8 | 28.9 | 7.1 | 50.9 |  | HitlevelM [1, 8]: 2; HitlevelF [2, 9]: 2
CN(C)CCN(Cc1ccc(-c2ccc(CNCCc3ccccc3)cc2)nc1)C(=O)CCC1CCCC1.O=C(O)C(F)(F)F [TCMDC-141402] | 46.5 | 41.7 | 6.4 | 71.6 | 2 | 0 | 13.9 | 22.3 | 7.4 | 7.2 | 0 | 
CC(C)(C)c1ccc(-c2cc3c(ccc4nc(N)nc(N)c43)[nH]2)cc1 [TCMDC-137977] | 2.0 | 6.1 | 0.4 | -0.46 | 0 | 0 | 6.0 | 2.7 | -16.6 | 37.6 | 0 | 
CN(C)S(=O)(=O)n1ccc2c3c(N)nc(N)nc3ccc21 [TCMDC-137973] | -3.2 | 31.1 | -3.2 | -51.1 | 0 | 0 | 12.1 | 13.5 | 33.5 | 1.8 | 0 | 
CC(C)n1c(C(C)(C)C)cc2c3c(N)nc(N)nc3ccc21 [TCMDC-137311] |  |  |  |  |  |  |  |  |  |  |  | Average inhibition male (%) [1, 10]: 66.3%; % inhibition male (individual replicates) R1 [1, 10]: 58.8%; % inhibition male (individual replicates) R3 [1, 10]: 70.2%; % inhibition male (individual replicates) R4 [1, 10]: 54.6%; HitlevelM ([1]; number of replicates with >50% inhibition in the male readout, 2µM): 4; Average inhibition female (%) [2, 10]: -0.8%; % inhibition female (individual replicates) R1 [2, 10]: -8.1%; % inhibition female (individual replicates) R3 [2, 10]: 21.9%; % inhibition female (individual replicates) R4 [2, 10]: -9.1%; HitlevelF ([2]; number of replicates with >50% inhibition in the female readout, 2µM): 0
C#CCOc1ccc2ccccc2c1CNCCCCCCNCc1c(OCC#C)ccc2ccccc12.CS(=O)(=O)O [TCMDC-137838] |  |  |  |  |  |  |  |  |  |  |  | Average inhibition male (%) [1, 11]: 97.5%; % inhibition male (individual replicates) R1 [1, 11]: 98.4%; % inhibition male (individual replicates) R3 [1, 11]: 92.7%; % inhibition male (individual replicates) R4 [1, 11]: 100.9%; Average inhibition female (%) [2, 11]: 57.5%; % inhibition female (individual replicates) R1 [2, 11]: 37.7%; % inhibition female (individual replicates) R3 [2, 11]: 36.7%; % inhibition female (individual replicates) R4 [2, 11]: 72.5%
COc1ccc(O)c(Cc2cnc3nc(N)[nH]c(=O)c3c2C)c1.CS(=O)(=O)O [TCMDC-137766] |  |  |  |  |  |  |  |  |  |  |  | % inhibition male (individual replicates) R1 [1, 3]: 13.3%; % inhibition male (individual replicates) R3 [1, 3]: -7.3%; % inhibition male (individual replicates) R4 [1, 3]: -9.1%; Average inhibition male (%) [1, 4]: 1.5%; % inhibition female (individual replicates) R1 [2, 3]: 3.3%; % inhibition female (individual replicates) R3 [2, 3]: -13.8%; % inhibition female (individual replicates) R4 [2, 3]: -13.6%; Average inhibition female (%) [2, 4]: -2.6%
CN1CCN(Cc2nc(-c3ccc4c(Nc5ccc(F)c(O)c5)ccnc4c3)cs2)CC1 [TCMDC-138439] | 3.8 | -1.6 | 1.0 | 20.9 | 0 | 0 | 3.7 | 13.1 | -10.3 | 4.9 | 0 | 
[O-][S+]1c2ccccc2Sc2ccccc21 [TCMDC-124300] |  |  |  |  |  |  |  |  |  |  |  | % inhibition male (individual replicates) R1 [1, 3]: 13.3%; % inhibition male (individual replicates) R3 [1, 3]: 4.0%; % inhibition male (individual replicates) R4 [1, 3]: -37.1%; Average inhibition male (%) [1, 4]: -9.5%; % inhibition female (individual replicates) R1 [2, 3]: 9.4%; % inhibition female (individual replicates) R3 [2, 3]: -8.0%; % inhibition female (individual replicates) R4 [2, 3]: -1.0%; Average inhibition female (%) [2, 4]: -3.0%
COc1ccc(CNC2Cc3ccccc3C2)cc1-c1ccc(OC)c(S(=O)(=O)NCCN2CCCC2)c1.O=C(O)C(F)(F)F [TCMDC-132251] | -9.5 | -12.6 | -24.0 | 8.2 |  |  | 36.3 | 26.7 | 26.1 | 31.1 |  | HitlevelM [1, 8]: 0; HitlevelF [2, 9]: 1
Cc1ccc2ccncc2c1N [TCMDC-138025] |  |  |  |  |  |  |  |  |  |  |  | % inhibition male (individual replicates) R1 [1, 3]: 6.2%; % inhibition male (individual replicates) R3 [1, 3]: 45.8%; % inhibition male (individual replicates) R4 [1, 3]: 37.3%; Average inhibition male (%) [1, 4]: 29.9%; % inhibition female (individual replicates) R1 [2, 3]: -5.1%; % inhibition female (individual replicates) R3 [2, 3]: -43.7%; % inhibition female (individual replicates) R4 [2, 3]: -6.6%; Average inhibition female (%) [2, 4]: -17.6%
CC(C)COc1ccc2ccccc2c1CNCCCCCCNCc1c(OCC(C)C)ccc2ccccc12.CS(=O)(=O)O [TCMDC-137972] | 47.1 | 41.0 | 61.0 | 84.0 |  |  | 43.0 | 37.9 | 36.7 | 62.6 |  | HitlevelM [1, 8]: 2; HitlevelF [2, 9]: 1
CC(=O)Nc1ccc(Nc2ncc([N+](=O)[O-])c(Nc3ccccc3C(N)=O)n2)cc1.Cl [TCMDC-138731] |  |  |  |  |  |  |  |  |  |  |  | % inhibition male (individual replicates) R1 [1, 3]: 16.1%; % inhibition male (individual replicates) R3 [1, 3]: -4.1%; % inhibition male (individual replicates) R4 [1, 3]: 46.2%; Average inhibition male (%) [1, 4]: 19.6%; % inhibition female (individual replicates) R1 [2, 3]: 2.0%; % inhibition female (individual replicates) R3 [2, 3]: 5.4%; % inhibition female (individual replicates) R4 [2, 3]: -11.2%; Average inhibition female (%) [2, 4]: -0.8%
CNCCNCc1cccc(-c2ccc(-c3nc4cc(C(F)(F)F)ccc4[nH]3)s2)c1.O=C(O)C(F)(F)F [TCMDC-132830] | 36.6 | 35.0 | 16.5 | 60.2 |  |  | 26.5 | 19.8 | 8.2 | 49.8 |  | HitlevelM [1, 8]: 1; HitlevelF [2, 9]: 0
Cc1nc2nc(N)nc(N)c2c(C)c1Cc1ccccc1Cl.Cl [TCMDC-137668] | 0.635 | 24.9 | -5.5 | -27.1 | 0 | 0 | 9.8 | 18.7 | -14.7 | 32.6 | 0 | 
